Results reported in US20100022559A1, “BISOXIMES AS FUNGICIDES” (BAYER CROPSCIENCE AG, priority 2006, published 2010).

Test: logP determination by HPLC on a reversed-phase column (C 18), EEC Directive 79/831 Annex V.A8
Type: physicochemical
Protocol: The stated logP values were determined in accordance with EEC Directive 79/831 Annex V.A8 by HPLC (high performance liquid chromatography) on a reversed-phase column (C 18). Temperature: 43° C.

[1] = method marker [b], isomer A / isomer B / isomer mixture as noted in the cell
[2] = method marker [a] (footnote not shown), isomer A / isomer B / isomer mixture as noted in the cell
[3] = [b] LC-MS, acidic range, pH 2.7, 0.1% aqueous formic acid and acetonitrile

| SMILES | logP (value marked [b]) | logP (method marked [b] in Table 1) | further results |
| --- | --- | --- | --- |
| C=C(CON=C(C)c1ncc(Cl)cc1Cl)CON=C(C)c1ncc(Cl)cc1Cl [compound 153] | – | – | logP [1]: 5.75^[b] |
| CC(=NOCC(C)(C)CON=C(C)c1cccc(C)n1)c1ccc2c(c1)OCO2 [compound 412] | 5.08^[b] | – | – |
| C=C(CON=C(C)c1cccc(C)n1)CON=C(C)c1nccc(C)n1 [compound 510] | 2.37^[b] | – | – |
| Cc1cc(C)nc(/C(N)=N/OCO/N=C(\N)c2cc(C)cc(C)n2)c1 [compound 58] | – | – | logP [1]: 1.87^[b] |
| C=CCCC(=NOCC(C)CON=C(CCC=C)c1ncccc1C)c1ncccc1C (centres unmarked) [compound 130] | – | – | logP [2]: 5.06^[a] |
| CC(=NOCC(O)CON=C(C)c1cc(C)cc(C)n1)c1cc(C)cc(C)n1 (centres unmarked) [compound 560] | – | 1.22[b] | logP (method marked [c] in Table 1): 3.68^[c] |
| C=C(CON=C(C)c1cccc(C)n1)CON=C(c1cccc(C)n1)C1CC1 (single isomer, unassigned) [compound 537] | – | 3.46^[b] (isomer B) | – |
| CC(=NOCC(C)CON=C(C)c1ccc(C)cn1)c1ccc(C)cn1 (centres unmarked) [compound 133] | – | – | logP [2]: 3.67^a] |
| C/C(=N\OCC(C)(C)CON)c1cccc(C)n1 [XII-4] | – | – | logP [3]: 1.11^[b] |
| CC(=NOCC(C)CON=C(C)c1ccnc(C)n1)c1cccc(C)n1 (centres unmarked) [compound 430] | 3.56^[b] | – | – |
| CC(=NOCC1(CON=C(C)c2nc(C)ccc2C)CC1)c1nc(C)ccc1C (single isomer, unassigned) [compound 764] | 2.17^[b] | – | logP (value marked [c]): 4.00^[c] |
| Cc1cccc(C(=NOCC2(CON=C(c3cccc(C)n3)C3CC3)CC(c3cccc(Cl)c3)=NO2)C2CC2)n1 (centres unmarked) [compound 655] | – | – | logP (method marked [a] in Table 1): 4.54^[a] |
| CC(=NOCCCCCCON=C(C)c1cccnc1C)c1cccc(C)n1 [compound 461] | 2.27^[b] | – | – |
| C=CCCC(=NOCC(=C)CON=C(C)c1cccc(C)n1)c1ncccc1C [compound 353] | 4.56^[b] | – | – |
| C/C(=N\OCCCON)c1cccc(C)n1 [XII-10] | – | – | logP ([a] acidic range, pH 2.3, 0.1% aqueous phosphoric acid and acetonitrile): 0.27^[a]; logP [3]: 0.27^[b]; logP ([c] LC-MS, neutral range, pH 7.8, 0.001 molar aqueous ammonium bicarbonate solution and acetonitrile): 1.72^[c] |
| CCC(=NOCC(C)(C)CON=C(C)c1cccc(C)n1)c1cccc(C)n1 [Compound 372] | 5.33^[b] | – | – |
| CC(CON1C(=O)c2ccccc2C1=O)CON1C(=O)c2ccccc2C1=O [IX-1, 2,2′-[(2-methylpropane-1,3-diyl)bis(oxy)]bis(1H-isoindole-1,3(2H)-dione)] | – | – | chromatographic logP (reversed-phase HPLC column (C 18), HCO2H, HPLC reversed-phase column (C 18), 43° C., read-out: logP (HCO2H)): 2.87 |
| C=C(CON=C(C)c1ccnc(C)c1)CON=C(C)c1cccc(C)n1 (single isomer, unassigned) [compound 362] | 1.71^[b] (isomer B) | – | – |
| CCCC(=NOCC1(CON=C(CCC)c2cccc(C)n2)CC(c2ccccc2Cl)=NO1)c1cccc(C)n1 (centres unmarked) [compound 623] | – | 6.51^[b] | – |
| CC(=NOCC(C)CON=C(C)c1cccc(C#N)n1)c1cccc(C#N)n1 (centres unmarked) [Compound 800] | – | – | logP (value marked [a]): 4.78^[a] |
| C=C(CON=C(C)c1cccc(C)n1)CON=C(C)c1ccc(Cl)s1 (single isomer, unassigned) [compound 195] | – | – | logP [1]: 4.82^[b] (isomer A) |
| C/C(=N\OCC1(CO/N=C(\C)c2ccc(C)c(C)n2)CC(c2ccccc2Cl)=NO1)c1ccc(C)c(C)n1 [compound 634] | – | 4.3^[b] | – |
| CC(=NOCC(CON=C(C)c1nc(C)ccc1C)C(C)C)c1nc(C)ccc1C (single isomer, unassigned) [Compound 753] | – | 4.51^[b] | logP (method marked [c] in Table 1): 5.95^[c] |

| SMILES | logP (value marked [b]) | logP (method marked [b] in Table 1) | further results |
| --- | --- | --- | --- |
| Cc1ccc(C(=NOCC(C)CON=C(c2ccc(C)c(C)n2)C(C)C)C(C)C)nc1C (mixture of isomers) [compound 299] | – | – | logP (value marked [a]): 4.82^[a] |
| N/C(=N\OCc1cccc(CO/N=C(\N)c2nc(C3CC3)cc(C3CC3)n2)c1)c1nc(C2CC2)cc(C2CC2)n1 [compound 716] | – | 3.76^[b] | – |
| C=C(CON=C(C)c1cccc(C)n1)CON=C(C)c1cc(C)cc(C)n1 [Compound 474] | 2.55^[b] | – | – |
| CC(=NOCC(O)CON=C(C)c1ccccn1)c1ccccn1 (centres unmarked) [compound 3] | – | – | logP [2]: 1.50^[a] |
| CC(=NOCC(CON=C(C)c1ccc(C)c(C)n1)c1ccccc1)c1ccc(C)c(C)n1 (centres unmarked) [Compound 318] | 4.02^[b] | – | logP (value marked [c]): 6.45^[c] |
| C=C(CON=Cc1cccc(C)n1)CON=Cc1cccc(C)n1 (single isomer, unassigned) [compound 662] | – | 2.16^[b] (isomer B) | – |
| CC(=NOCCCCCCON=C(Cc1ccccc1)c1ncccc1C)c1cccc(C)n1 [compound 339] | 5.90^[b] (isomer B) | – | – |
| Cc1cccc(C(=NOCC2(CON=C(c3cccc(C)n3)C3CC3)CC(c3ccccc3)=NO2)C2CC2)n1 (centres unmarked) [compound 650] | – | – | logP (method marked [a] in Table 1): 3.80^[a] |
| Cc1cccnc1C(Cc1ccccc1)=NOCCCON=C(Cc1ccccc1)c1ncccc1C (single isomer, unassigned) [compound 96] | – | – | logP [2]: 5.54^[a] (isomer B) |
| CC(=NOCC(C)CON=C(C)c1cccc(C)n1)c1ccc2ccccc2c1 (centres unmarked) [compound 497] | 5.84^[b] | – | – |
| CC(=NOCCCCCCON=C(C)c1cccc(C)n1)c1ccc(C)nc1 [compound 394] | 2.62^[b] | – | – |
| CC(=NOCc1ccccc1CON=C(C)c1nc(C)c(C)s1)c1nc(C)c(C)s1 [compound 730] | – | 5.71^[b] | – |
| C=C(CON=C(C)c1ccc2ccccc2c1)CON=C(C)c1cccc(C)n1 [compound 472] | 5.48^[b] | – | – |
| CC(=NOCC1(CON=C(C)c2cccc(C)n2)CCC1)c1cccc(C)n1 [Compound 289] | 4.77^[b] | – | – |
| CC(=NOCC(C)CON=C(C)c1cc(N2CCCC2)cc(C)n1)c1cc(N2CCCC2)cc(C)n1 (centres unmarked) [Compound 847] | – | – | logP (value marked [a]): 1.40^[a]; logP (value marked [c]): 5.93^[c] |
| CC(=NOCC(CON=C(C)c1nc(C)ccc1C)C(C)(C)C)c1nc(C)ccc1C (single isomer, unassigned) [compound 756] | – | 3.22^[b] | logP (method marked [c] in Table 1): 5.20^[c] |
| CC#Cc1cccc(C(C)=NOCC(C)CON=C(C)c2cccc(C#CC)n2)n1 (centres unmarked) [Compound 686] | – | 5.65^[b] | – |
| CC(=O)OCC#Cc1cc(C)nc(C(C)=NOCC(C)CON=C(C)c2cc(C#CCOC(C)=O)cc(C)n2)c1 (centres unmarked) [compound 875] | 6.25^[b] | – | logP (value marked [a]): 6.25^[a]; logP (value marked [c]): 6.31^[c] |
| CCCC(=NOCC(C)(C)CON=C(CCC)c1cccc(C)n1)c1cccc(C)n1 [Compound 279] | – | – | logP (value marked [a]): 7.25^[a] |
| CC(=NOCC(C)(C)CON=C(C)c1cccc(C)n1)c1cccc(Cl)c1 [Compound 483] | 6.22^[b] | – | – |
| CCCC(=NOCC1(CON=C(CCC)c2cccc(C)n2)CC(C(C)C)=NO1)c1cccc(C)n1 (centres unmarked) [compound 616] | – | 5.71^[b] | – |
| CC(=NOCC(C)CON=C(C)c1cccc(C)n1)c1cccc(C)n1 (centres unmarked) [Compound 1] | – | – | logP [2]: 2.31^[a]; logP (method marker [c] (footnote not shown)): 5.44^[c] |
| Cc1nc(C(N)=NOC/C=C\CON=C(N)c2nc(C)c(Cl)c(C)n2)nc(C)c1Cl [compound 775] | 2.77^[b] | – | – |

| SMILES | logP (value marked [b]) | logP (method marked [b] in Table 1) | further results |
| --- | --- | --- | --- |
| Cc1cccc(C(=NOCC(C)CON=C(c2ccccc2)c2cccc(C)n2)c2ccccc2)n1 (single isomer, unassigned) [compound 661] | – | – | logP (method marked [a] in Table 1): 4.10^[a] (isomer A) |
| CCCC(=NOCC1(CON=C(CCC)c2cccc(C)n2)CC(c2ccc(Cl)cc2)=NO1)c1cccc(C)n1 (centres unmarked) [compound 622] | – | 6.58^[b] | – |
| CCCC(=NOCC1(CON=C(CCC)c2cccc(C)n2)CC(C=C(C)C)=NO1)c1cccc(C)n1 (centres unmarked) [compound 625] | – | 5.97^[b] | – |
| CC(=NOCC1(CON=C(C)c2ccc(C)c(C)n2)COC(=O)N1)c1ccc(C)c(C)n1 (centres unmarked) [compound 857] | 1.96^[b] | – | logP (value marked [c]): 3.70^[c] |
| Cc1cccc(C(=NOCCCON=C(c2cccc(C)n2)C(C)C)C(C)C)n1 (single isomer, unassigned) [compound 89] | – | – | logP [2]: 4.45^[a] (isomer A) |
| CC(=NOC(=O)N(C)C(=O)ON=C(C)c1ccc(C)c(C)n1)c1ccc(C)c(C)n1 [compound 674] | – | 2.79^[b] | – |
| CC(=NOCc1cccc(CON=C(C)c2nc(C)c(C)s2)c1)c1nc(C)c(C)s1 [compound 732] | – | 5.71^[b] | – |
| COC(=NOCC(C)CON=C(OC)c1cccc(C)n1)c1cccc(C)n1 (centres unmarked) [Compound 835] | – | – | logP (value marked [a]): 1.95^[a] |
| CC(=NOCC1(CON=C(C)c2cc(C)cc(C)n2)CC(c2cccc(Cl)c2)=NO1)c1cc(C)cc(C)n1 (centres unmarked) [compound 646] | – | 3.28^[b] | – |
| CCCC1=NOC(CON=C(C)c2cccc(C)n2)(CON=C(C)c2cccc(C)n2)C1 (centres unmarked) [compound 598] | – | 3.33^[b] | – |
| CC(=NOCC1(CON=C(C)c2cccc(C)n2)CC(c2ccccc2Cl)=NO1)c1cccc(C)n1 (centres unmarked) [compound 602] | – | 4.46^[b] | – |
| CCCC(=NOCC1(CON=C(CCC)c2cccc(C)n2)CC(C)=NO1)c1cccc(C)n1 (centres unmarked) [compound 615] | – | 4.56^[b] | – |
| C=C(CON=Cc1cccc(C)n1)CON=C(C)c1cccc(C)n1 [compound 663] | – | 2.54^[b] | – |
| CC(=NOCC1(CON=C(C)c2cccc(C)n2)CO1)c1cccc(C)n1 (centres unmarked) [compound 220] | – | – | logP [2]: 2.24^[a] |
| C=C(CON=C(C)c1cccc(C)n1)CON=C(C)c1ccnc(C)n1 [compound 360] | 3.24^[b] | – | – |
| CCCC(=NOCC(C)CON=C(C)c1cccc(C)n1)c1cccc(C)n1 (centres unmarked) [Compound 427] | 5.31^[b] | – | – |
| CCC(=NOCCON=C(CC)c1cccc(C)n1)c1cccc(C)n1 (mixture of isomers) [compound 222] | – | – | logP [2]: 3.77^[a] |
| COCc1nc(/C(N)=N/OCc2ccccc2CO/N=C(\N)c2nc(COC)c(C)c(COC)n2)nc(COC)c1C [compound 708] | – | 2.16^[b] | – |
| C=C(CON=C(C)c1cccs1)CON=C(C)c1cccs1 (single isomer, unassigned) [compound 79] | – | – | logP [1]: 4,56^[b] (isomer A) |
| CC(=NOCCCCCCON=C(C)c1cccc(C)n1)c1ccc(Cl)cc1 [compound 458] | 6.58^[b] | – | – |
| CC(=NOCC1(CON=C(C)c2cc(C)cc(C)n2)CCC1)c1cc(C)cc(C)n1 [Compound 562] | – | 2.90^[b] | logP (method marked [c] in Table 1): 6.93^[c] |
